From patent US6096930A, “Herbicidal cyclohexane-1,3-dione derivatives and their preparation process” (Korea Research Institute of Chemical Technology, priority 1994, dated 2000)
Read-outs that look alike come from different tables or passages of the source.

What was measured:
Assay in all cases: Herbicidal activity for paddy test
Type in all cases: in vivo
ORYSA = details: for plant injury at 2 g/ha: 0.002 kg/ha; for plant injury at 8 g/ha: 0.008 kg/ha; for plant injury at 31 g/ha: 0.031 kg/ha; for plant injury at 125 g/ha: 0.125 kg/ha; for plant injury at 500 g/ha: 0.500 kg/ha
From the text: (§1) The sterilized sandy loam soil is filled in test pot having a surface area of 348 cm^2 for upland test conditions or 115 cm^2 for paddy test species were planted in furrows.
(§2) The herbicidal activity data were taken visually by percent control, wherein 0 signifies no herbicidal effect and 100 signifies complete kill.

ECHOR = details: for pest or weed control at 2 g/ha: 0.002 kg/ha; for pest or weed control at 8 g/ha: 0.008 kg/ha; for pest or weed control at 31 g/ha: 0.031 kg/ha; for pest or weed control at 125 g/ha: 0.125 kg/ha; for pest or weed control at 500 g/ha: 0.500 kg/ha
From the text: as §1, §2

SCPJU = details: for pest or weed control at 2 g/ha: 0.002 kg/ha; for pest or weed control at 8 g/ha: 0.008 kg/ha; for pest or weed control at 31 g/ha: 0.031 kg/ha; for pest or weed control at 125 g/ha: 0.125 kg/ha; for pest or weed control at 500 g/ha: 0.500 kg/ha
From the text: as §1, §2

MOOVA = details: for pest or weed control at 2 g/ha: 0.002 kg/ha; for pest or weed control at 8 g/ha: 0.008 kg/ha; for pest or weed control at 31 g/ha: 0.031 kg/ha; for pest or weed control at 125 g/ha: 0.125 kg/ha; for pest or weed control at 500 g/ha: 0.500 kg/ha
From the text: as §1, §2

SAGPY = details: for pest or weed control at 2 g/ha: 0.002 kg/ha; for pest or weed control at 8 g/ha: 0.008 kg/ha; for pest or weed control at 31 g/ha: 0.031 kg/ha; for pest or weed control at 125 g/ha: 0.125 kg/ha; for pest or weed control at 500 g/ha: 0.500 kg/ha
From the text: as §1, §2

[1] = 3 Leaf, read-out: Herbicidal activity, ORYSA (3 Leaf)
[2] = seed, read-out: Herbicidal activity, ORYSA (seed)

Compound | plant injury at 2 g/ha (ORYSA; [1]) | plant injury at 8 g/ha (ORYSA; [1]) | plant injury at 31 g/ha (ORYSA; [1]) | plant injury at 125 g/ha (ORYSA; [1]) | plant injury at 500 g/ha (ORYSA; [1]) | plant injury at 2 g/ha (ORYSA; [2]) | plant injury at 8 g/ha (ORYSA; [2]) | plant injury at 31 g/ha (ORYSA; [2]) | plant injury at 125 g/ha (ORYSA; [2]) | plant injury at 500 g/ha (ORYSA; [2]) | pest or weed control at 2 g/ha (ECHOR) | pest or weed control at 8 g/ha (ECHOR) | pest or weed control at 31 g/ha (ECHOR) | pest or weed control at 125 g/ha (ECHOR) | pest or weed control at 500 g/ha (ECHOR) | pest or weed control at 2 g/ha (SCPJU) | pest or weed control at 8 g/ha (SCPJU) | pest or weed control at 31 g/ha (SCPJU) | pest or weed control at 125 g/ha (SCPJU) | pest or weed control at 500 g/ha (SCPJU) | also measured
CCON=C(CC)C1=C(O)CC(c2c(C)c(C)c3c(c2C)CC(C)(CC)C3)CC1=O (stereo not drawn) [Compound 12] | 0% | 0% | 0% | 0% | 40% | 0% | 0% | 30% | 100% | 100% | 30% | 70% | 100% | 100% | 100% | 0% | 0% | 0% | 0% | 60% | pest or weed control at 2 g/ha (MOOVA): 0%; pest or weed control at 8 g/ha (MOOVA): 0%; pest or weed control at 31 g/ha (MOOVA): 0%; pest or weed control at 125 g/ha (MOOVA): 0%; pest or weed control at 500 g/ha (MOOVA): 50%; pest or weed control at 2 g/ha (SAGPY): 0%; pest or weed control at 8 g/ha (SAGPY): 0%; pest or weed control at 31 g/ha (SAGPY): 0%; pest or weed control at 125 g/ha (SAGPY): 0%; pest or weed control at 500 g/ha (SAGPY): 30%
C=CCON=C(CC)C1=C(O)CC(c2c(C)c(C)c3c(c2C)CC(C)(CC)C3)CC1=O (stereo not drawn) [Compound 13, 5-(2-Ethyl-2,4,5,7-tetramethylindan-6-yl)-2-[1-(allyloxyimino)propyl]-3-hydroxycyclohex-2-en-1-one] | 0% | 0% | 0% | 0% | 30% | 0% | 30% | 50% | 100% | 100% | 30% | 50% | 100% | 100% | 100% | 0% | 0% | 0% | 0% | 0% | pest or weed control at 2 g/ha (MOOVA): 0%; pest or weed control at 8 g/ha (MOOVA): 0%; pest or weed control at 31 g/ha (MOOVA): 0%; pest or weed control at 125 g/ha (MOOVA): 0%; pest or weed control at 500 g/ha (MOOVA): 30%; pest or weed control at 2 g/ha (SAGPY): 0%; pest or weed control at 8 g/ha (SAGPY): 0%; pest or weed control at 31 g/ha (SAGPY): 0%; pest or weed control at 125 g/ha (SAGPY): 30%; pest or weed control at 500 g/ha (SAGPY): 30%
CCC(=NOCC=CCl)C1=C(O)CC(c2c(C)c(C)c3c(c2C)CC(C)(CC)C3)CC1=O (stereo not drawn) [Compound 14] | 0% | 0% | 0% | 0% | 40% | 0% | 0% | 0% | 40% | 100% | 30% | 70% | 100% | 100% | 100% | 0% | 0% | 0% | 30% | 90% | pest or weed control at 2 g/ha (MOOVA): 0%; pest or weed control at 8 g/ha (MOOVA): 0%; pest or weed control at 31 g/ha (MOOVA): 0%; pest or weed control at 125 g/ha (MOOVA): 30%; pest or weed control at 500 g/ha (MOOVA): 100%; pest or weed control at 2 g/ha (SAGPY): 0%; pest or weed control at 8 g/ha (SAGPY): 0%; pest or weed control at 31 g/ha (SAGPY): 0%; pest or weed control at 125 g/ha (SAGPY): 0%; pest or weed control at 500 g/ha (SAGPY): 30%
